Data reported in patent US20240390512A1, “METHODS OF TREATING CHEMOTHERAPY-RESISTANT CANCER WITH AN ANTIBODY-DRUG CONJUGATE” (DAIICHI SANKYO COMPANY, LIMITED, priority 2021, published 2024).
Where two headings read alike, the source gives them in different places.

Legend:
[1] = tested on: Human ovarian cancer cell line OV-90; assay: Antitumor study (2), combination with carboplatin, OV-90 xenograft; conditions: Day 21; ADC (1) 1 mg/kg iv Day 0, carboplatin 50 mg/kg iv Day 0
Description: Human ovarian cancer cell line OV-90, which was purchased from ATCC, was suspended into Matrigel (Corning Inc.), subcutaneously transplanted at 2.5×10^6 cells into the right side of female nude mice, and the mice were randomly grouped 14 days after the transplantation (Day 0). […] Single administration groups of each drug, a combined administration group, and a solvent administration group as a control group were set up.

[2] = tested on: Human ovarian cancer cell line NIH:OVCAR-3; assay: Antitumor study (1), combination with carboplatin, NIH:OVCAR-3 xenograft; conditions: Day 21; ADC (1) 0.3 mg/kg iv Day 0, carboplatin 50 mg/kg iv Day 0
Description: Human ovarian cancer cell line NIH:OVCAR-3, which was purchased from ATCC, was suspended into Matrigel (Corning Inc.), subcutaneously transplanted at 1.0×10^7 cells into the right side of female nude mice, and the mice were randomly grouped 24 days after the transplantation (Day 0). The antibody-drug conjugate (1) (formula 4) (DAR: 7.9) was intravenously administered to the tail vein at a dose of 0.3 mg/kg on Day 0. […] Single administration groups of each drug, a combined administration group, and a solvent administration group as a control group were set up.

[3] = tested on: Human ovarian cancer cell line OV-90; assay: Antitumor study (4), combination with gemcitabine, OV-90 xenograft; assay type: in vivo, mouse; conditions: Day 21; ADC (1) 3 mg/kg iv Day 0, gemcitabine 15 mg/kg iv Day 0, 7, 14
Description: (§1) Measurement and calculation formula: In the study, the major axis and minor axis of tumors were measured up to 3 times a week with an electronic digital caliper (CD15-CX, Mitutoyo Corp.), and the tumor volume (mm^3) was calculated. The calculation formula is as shown below.

[4] = tested on: Human ovarian cancer cell line OV-90; assay type: in vivo, mouse; conditions: Day 15; ADC (1) 10 mg/kg iv Day 0, carboplatin 50 mg/kg iv Day 0, paclitaxel 20 mg/kg iv Day 1
Description: Measurement and calculation formula: In the study, the major axis and minor axis of tumors were measured twice a week with an electronic digital caliper (CD15-CX, Mitutoyo Corp.), and the tumor volume (mm^3) was calculated. The calculation formula is as shown below.

[5] = tested on: Human ovarian cancer cell line NIH:OVCAR-3; assay: In vivo antitumor effect after long-term treatment of carboplatin and paclitaxel, NIH:OVCAR-3 xenograft; design: species or system mouse; conditions: carboplatin 50 mg/kg and paclitaxel 30 mg/kg iv
Description: as §1, with “below. Tumor volume (mm^3)=½×Major axis (mm)×[Minor axis (mm)]^2.” for “below.”
Carboplatin was diluted with physiological saline, and intravenously administered to the tail vein in a fluid volume of 10 mL/kg. Paclitaxel was dissolved with cremophor and ethanol (1:1), diluted with physiological saline, and then intravenously administered to the tail vein in a fluid volume of 10 mL/kg. The antibody-drug conjugate (formula 4) was diluted with ABS buffer (10 mM acetate buffer [pH 5.5], 5% sorbitol), and intravenously administered to the tail vein in a fluid volume of 10 mL/kg.
For clarity, the antibody comprised in the antibody-drug conjugate (1) administered is referred as “H01L02” in the present invention.

## N.N.O=C([O-])C1(C(=O)[O-])CCC1.[Pt+2] [carboplatin]
[1]
  TGI: 23%
[2]
  tumor growth inhibition (TGI): 47%

## Nc1ccn([C@@H]2O[C@H](CO)[C@@H](O)C2(F)F)c(=O)n1 [gemcitabine]
[3]
  TGI: 23%

## carboplatin and paclitaxel
[4]
  TGI: 65%
[5]; 12 mice
  tumor response to the first dosing: the tumor regressed in all cases
[5]; regrowth in all most cases
  time to tumor regrowth after the first dosing: ≤ 6 weeks
